From PubChem BioAssay (NCI)
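Method: 48-hour compound exposure of cells in 96-well plates, five concentrations, linear interpolation of endpoints. TGI marks complete inhibition of growth.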

Tests used:
Experiment in all cases: NCI tumour cell line growth inhibition, 48 h
[1] = test system: EKVX NSCLC
[2] = test system: RXF 393 renal
[3] = test system: HT29 colon
[4] = test system: RPMI-8226 leukemia
[5] = test system: OVCAR-8 ovarian
[6] = test system: OVCAR-4 ovarian
[7] = test system: NCI-H460 lung
[8] = test system: MALME-3M melanoma
[9] = test system: HL-60(TB) leukemia
[10] = test system: SNB-75 CNS
[11] = test system: SK-OV-3 ovarian
[12] = test system: SN12C renal
[13] = test system: HCT-116 colon
[14] = test system: UACC-62 melanoma
[15] = test system: OVCAR-3 ovarian
[16] = test system: HOP-62 NSCLC
[17] = test system: SF-295 CNS
[18] = test system: CAKI-1 renal
[19] = test system: SNB-19 CNS
[20] = test system: T-47D breast
[21] = test system: MOLT-4 leukemia
[22] = test system: IGROV1 ovarian
[23] = test system: MDA-N
[24] = test system: UO-31 renal
[25] = test system: TK-10 renal
[26] = test system: 786-0 renal
[27] = test system: OVCAR-5 ovarian
[28] = test system: CCRF-CEM leukemia
[29] = test system: HS 578T breast
[30] = test system: HCC-2998 colon
[31] = test system: UACC-257 melanoma
[32] = test system: NCI-H522 lung
[33] = test system: NCI-H226 lung
[34] = test system: SF-268 CNS
[35] = test system: COLO 205 colon
[36] = test system: KM12 colon
[37] = test system: U251 CNS
[38] = test system: NCI-H23 lung
[39] = test system: PC-3 prostate
[40] = test system: BT-549 breast
[41] = test system: HOP-92 NSCLC
[42] = test system: SK-MEL-28 melanoma
[43] = test system: MDA-MB-435
[44] = test system: SK-MEL-2 melanoma
[45] = test system: SK-MEL-5 melanoma
[46] = test system: SR leukemia
[47] = test system: ACHN renal
[48] = test system: MDA-MB-231 breast
[49] = test system: NCI/ADR-RES ovarian
[50] = test system: SW-620 colon
[51] = test system: LOX IMVI melanoma
[52] = test system: A498 renal
[53] = test system: MCF7 breast
[54] = test system: A549 NSCLC
[55] = test system: M14 melanoma
[56] = test system: K-562 leukemia
[57] = test system: SF-539 CNS
[58] = test system: DU-145 prostate
[59] = test system: HCT-15 colon
[60] = test system: M19-MEL melanoma
[61] = test system: DLD-1 colon
[62] = test system: XF 498 CNS
[63] = test system: DMS 273 small cell lung
[64] = test system: KM20L2 colon
[65] = test system: DMS 114 small cell lung
[66] = test system: LXFL 529 NSCLC
[67] = test system: SNB-78 CNS

Measured: TGI

c1csc(-c2csc(-c3ccsc3)c2)c1
> 71.4 µM: [53]
98.6 µM: [57]
not listed: [60] | [61] | [62] | [63] | [64] | [65] | [66] | [67]
> 100 µM: all other assays above

Cc1nc2ccccc2c(=O)n1/N=C(\N=Nc1cccc(Cl)c1)c1ccccc1Cl
3.73 µM: [56]
58.5 µM: [41]
89 µM: [57]
71.5 µM: [17]
55.2 µM: [2]
> 100 µM: [1] | [3] | [4] | [5] | [7] | [12] | [13] | [14] | [16] | [60] | [18] | [61] | [24] | [25] | [26] | [32] | [37] | [38] | [63] | [64] | [45] | [50] | [51] | [54] | [55] | [59]
3.91 µM: [62]
62.8 µM: [11]

CCCCc1c2c(nc3c1CCc1cc4cc5c(nc4nc1-3)-c1nc3c(c(CCCC)c1CC5)CCC/C3=C\c1ccccc1)/C(=C/c1ccccc1)CCC2
not listed: [6] | [18] | [20] | [23] | [27] | [29] | [39] | [40] | [41] | [43] | [44] | [45] | [48] | [49] | [52] | [53] | [58] | [60] | [62]
> 100 µM: all other assays above

O=C(/C=C(\O)c1ccccc1)/C(=C/C(=O)c1ccccc1)NN=C(c1ccccc1)c1ccccc1
72.7 µM: [33]
73.1 µM: [31]
72.8 µM: [7]
43 µM: [45]
77.6 µM: [49]
84.2 µM: [44]
63 µM: [32]
72.6 µM: [55]
92.5 µM: [11]
36.7 µM: [14]
79.9 µM: [38]
52.5 µM: [21]
6.8 µM: [9]
67.1 µM: [15]
97.6 µM: [25]
58.7 µM: [30]
54.7 µM: [28]
not listed: [60] | [61] | [62] | [63] | [64] | [65] | [66] | [67]
> 100 µM: all other assays above
